A value given as a limit tells only on which side of the number the result lay.

The term IC50 denotes the concentration that gives 50% inhibition. A low value points to higher potency.

One experiment deals with MAGL (Homo sapiens (Human), UniProt Q99685). In words: In vitro competitive activity-based protein profiling, human proteomes (prefrontal cortex or PC3 cell membrane fractions). Format: biochemical. The following applies: 1 μM, human proteome; read-out: MAGL % inh. 1 μM (human). As to the method: In Vitro Competitive Activity-Based Protein Profiling.
Chain of MAGL (Q99685 whole entry): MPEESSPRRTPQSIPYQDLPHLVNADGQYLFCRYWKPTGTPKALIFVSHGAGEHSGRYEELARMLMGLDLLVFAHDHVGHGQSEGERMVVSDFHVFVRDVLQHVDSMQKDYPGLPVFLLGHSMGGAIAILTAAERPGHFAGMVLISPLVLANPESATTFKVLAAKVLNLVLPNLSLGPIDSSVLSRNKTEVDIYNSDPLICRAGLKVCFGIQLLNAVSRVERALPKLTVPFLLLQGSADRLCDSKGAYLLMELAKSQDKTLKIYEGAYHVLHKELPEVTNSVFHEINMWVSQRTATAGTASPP
Proteomes (mouse brain membrane fraction or cell lysates for mouse assays; human prefrontal cortex or PC3 cell membrane fractions for human assays) (50 μL, 1.0 or 2.0 mg/mL total protein concentration) were preincubated with varying concentrations of inhibitors at 37° C. After 30 min, FP-Rh or JW912 or HT-01 (1.0 μL, 50 μM in DMSO) was added and the mixture was incubated for another 30 min at 37° C. Reactions were quenched with SDS loading buffer (15 μL-4×) and run on SDS-PAGE. Following gel imaging, serine hydrolase activity was determined by measuring fluorescent intensity of gel bands corresponding to MAGL and FAAH using ImageJ 1.43u software.
Take `C[C@@H]1CN(C(=O)n2ccc(NS(C)(=O)=O)n2)CCN1Cc1ccc(Cl)c(N2CC[C@H](F)C2)c1` [Example 203, N-(1-((R)-4-(4-Chloro-3-((S)-3-fluoropyrrolidin-1-yl)benzyl)-3-methylpiperazine-1-carbonyl)-1H-pyrazol-3-yl)methanesulfonamide]: the inhibition at 1 µM is greater than 75%.

Take `CS(=O)(=O)Nc1ccn(C(=O)N2CCC3(CCCN3Cc3ccc(Cl)cc3N3CCC(F)CC3)CC2)n1` [Example 204, N-(1-(1-(4-Chloro-2-(4-fluoropiperidin-1-yl)benzyl)-1,8-diazaspiro[4.5]decane-8-carbonyl)-1H-pyrazol-3-yl)methanesulfonamide]: the inhibition at 1 µM was greater than 75%.

For the compound `CS(=O)(=O)Nc1ccn(C(=O)N2CCC3(CCCN3Cc3ccc(Cl)cc3N3CC4COCC4C3)CC2)n1` (stereo not shown) [Example 205, N-(1-(1-(4-Chloro-2-(tetrahydro-1H-furo[3,4-c]pyrrol-5(3H)-yl)benzyl)-1,8-diazaspiro[4.5]decane-8-carbonyl)-1H-pyrazol-3-yl)methanesulfonamide], the inhibition at 1 µM was greater than 75%.

Consider `CN(Cc1ccc(Cl)c(N2CCC(F)CC2)c1)C1CCN(C(=O)n2ccc(NS(C)(=O)=O)n2)CC1` [Example 206, N-(1-(4-((4-Chloro-3-(4-fluoropiperidin-1-yl)benzyl)(methyl)amino)piperidine-1-carbonyl)-1H-pyrazol-3-yl)methanesulfonamide], for which the inhibition at 1 µM is greater than 75%.

For `CC(=O)Nc1ccn(C(=O)N2CCN(Cc3ccc(-c4ccccc4)cc3C)C[C@@H]2C)n1` [Example 207, (S)-N-(1-(2-Methyl-4-((3-methyl-[1,1′-biphenyl]-4-yl)methyl)piperazine-1-carbonyl)-1H-pyrazol-3-yl)acetamide], the inhibition at 1 µM is greater than 75%.

Consider `CC(=O)Nc1ccn(C(=O)N2CCN(Cc3ccc(-c4ccccc4)cc3C)C[C@H]2C)n1` [Example 208, (R)-N-(1-(2-Methyl-4-((3-methyl-[1,1′-biphenyl]-4-yl)methyl)piperazine-1-carbonyl)-1H-pyrazol-3-yl)acetamide], for which the inhibition at 1 µM was greater than 75%.

Consider `CS(=O)(=O)Nc1ccn(C(=O)N2CCN(Cc3ccc(Cl)c(N4CCC(C#N)CC4)c3)CC2)n1` [Example 211, N-(1-(4-(4-Chloro-3-(4-cyano-piperidin-1-yl)benzyl)piperazine-1-carbonyl)-1H-pyrazol-3-yl)methane-sulfonamide], for which the inhibition at 1 µM was greater than 75%.

Turning to `CS(=O)(=O)Nc1ccn(C(=O)N2CCN(Cc3ccc(Cl)c(F)c3)CC2)n1` [Example 212, N-(1-(4-(4-Chloro-3-fluorobenzyl)piperazine-1-carbonyl)-1H-pyrazol-3-yl)methane-sulfonamide], the inhibition at 1 µM is greater than 75%.

For `CC(C)C1CCN(c2cc(CN3CCN(C(=O)n4ccc(NS(C)(=O)=O)n4)CC3)ccc2Cl)CC1` [Example 213, N-(1-(4-(4-Chloro-3-(4-isopropyl-piperidin-1-yl)benzyl)piperazine-1-carbonyl)-1H-pyrazol-3-yl)methane-sulfonamide], the inhibition at 1 µM was greater than 75%.

In the case of `CS(=O)(=O)Nc1ccn(C(=O)N2CCN(Cc3ccc(Cl)c(C(F)(F)F)c3)CC2)n1` [Example 214, N-(1-(4-(4-Chloro-3-(trifluoromethyl)benzyl)piperazine-1-carbonyl)-1H-pyrazol-3-yl)methane-sulfonamide], the inhibition at 1 µM was greater than 75%.

Staying with this experiment, now noted: 10 μM, human proteome; read-out: MAGL % inh. (human) @ 10 μM.
`CS(=O)(=O)Nc1ccn(C(=O)N2CCN(Cc3ccc(Cl)c(N4CC5CNCC5C4)c3)CC2)n1` (stereo not shown) [Example 152, N-(1-(4-(4-Chloro-3-(hexahydropyrrolo[3,4-c]pyrrol-2(1H)-yl)benzyl)piperazine-1-carbonyl)-1H-pyrazol-3-yl)methanesulfonamide]: the inhibition at 10 µM was greater than 75%.

In the case of `CS(=O)(=O)Nc1ccn(C(=O)N2CCC3(CCN(Cc4ccccc4)C3)CC2)n1` [Example 165, N-(1-(2-Benzyl-2,8-diazaspiro[4.5]decane-8-carbonyl)-1H-pyrazol-3-yl)methanesulfonamide], the inhibition at 10 µM was greater than 75%.

Still in this experiment, the particulars now being: human proteome.
Take `CC(=O)Nc1ccn(C(=O)N2CCN(Cc3ccc(-c4ccccc4)cc3C)C[C@H]2C)n1` [Example 208, (R)-N-(1-(2-Methyl-4-((3-methyl-[1,1′-biphenyl]-4-yl)methyl)piperazine-1-carbonyl)-1H-pyrazol-3-yl)acetamide]: the concentration for half-maximal inhibition (IC50) is less than 0.1 µM.
